pKd: −log10 of the molar value. Counter-ions that a name gives are not always drawn.
Target: T1, MLKL (Homo sapiens, UniProt Q8NB16)
T1 sequence (Q8NB16 1-471): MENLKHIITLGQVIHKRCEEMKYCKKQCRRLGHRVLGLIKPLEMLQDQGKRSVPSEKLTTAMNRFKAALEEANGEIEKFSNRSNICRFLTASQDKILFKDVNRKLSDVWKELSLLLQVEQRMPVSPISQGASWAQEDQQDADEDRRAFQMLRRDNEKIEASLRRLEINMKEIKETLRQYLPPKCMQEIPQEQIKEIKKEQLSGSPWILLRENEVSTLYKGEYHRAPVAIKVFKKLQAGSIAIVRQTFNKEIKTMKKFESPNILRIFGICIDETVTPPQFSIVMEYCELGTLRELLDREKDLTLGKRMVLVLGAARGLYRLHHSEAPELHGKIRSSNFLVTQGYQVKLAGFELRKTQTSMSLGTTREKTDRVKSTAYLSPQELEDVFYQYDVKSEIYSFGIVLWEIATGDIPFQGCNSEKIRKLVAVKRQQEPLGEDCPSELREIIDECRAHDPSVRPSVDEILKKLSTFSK
Experiment: Measurement of binding affinity with MLKL receptor (competitive binding assay, Kd)
Design: made in house; host or cells: HEK 293 cell line (T7 phage in E. coli BL21-derived host is also described)
Conditions: not given
Procedure: Measurement of Binding Affinity with MLKL Receptor (Competitive Binding Assay)
The binding affinity was evaluated by measuring the Kd value in the following method.
To prepare kinase-tagged T7 phage strains in an E. coli host derived from the BL21 strain, E. coli were grown to log-phase and infected with T7 phage and incubated with shaking at 32° C. until lysis. The lysates were centrifuged and filtered to remove cell debris. For kinase production, it was expressed in human embryonic kidney cell line (HEK 293 cell line), and subsequently tagged with DNA for qPCR detection.
The liganded beads were blocked with excess biotin and washed with blocking buffer (SeaBlock (Pierce), 1% BSA, 0.05% Tween 20, 1 mM DTT) to remove unbound ligand and to reduce non-specific binding. […] Test compounds were prepared as 111× stocks in 100% DMSO.
The compounds were then diluted directly into the assays such that the final concentration of DMSO was 0.9%. All reactions performed in polypropylene 384-well plate. Each was a final volume of 0.02 ml. […] The kinase concentration in the eluates was measured by qPCR.

| Compound | pKd |
| --- | --- |
| Cc1cc(Nc2ncc(Cl)c(Nc3ccccc3S(=O)(=O)C(C)C)n2)c(OC(C)C)cc1C1CCNCC1 [Ceritinib (C2)] | < 5.00 |
| Nc1nccnc1C(=O)O[C@@H](C(=O)Nc1ccc(F)cc1)c1ccccc1 [TDH-001, (R)-2-((4-fluorophenyl)amino)-2-oxo-1-phenylethyl 3-aminopyrazine-2-carboxylate] | 7.03 |
| CC(C)(C)OC(=O)N1CC=C(c2cnc(N)c(C(=O)O[C@@H](C(=O)Nc3ccc(F)cc3)c3ccccc3)c2)CC1 [TDH-066, (R)-1′-(tert-butyl) 5-(2-((4-fluorophenyl)amino)-2-oxo-1-phenylethyl) 6-amino-3′,6′-dihydro-[3,4′-bipyridine]-1′,5(2′H)-dicarboxylate] | 6.19 |
| Nc1ncc(Br)nc1C(=O)N[C@H](C(=O)Nc1ccc(F)cc1)c1ccccc1 [TDH-067, (S)-3-amino-6-bromo-N-(2-((4-fluorophenyl)amino)-2-oxo-1-phenylethyl)pyrazine-2-carboxamide] | < 5.00 |
| Nc1ncc(C2=CCNCC2)nc1C(=O)O[C@@H](C(=O)Nc1ccc(F)cc1)c1ccccc1 [TDH-068, (R)-2-((4-fluorophenyl)amino)-2-oxo-1-phenylethyl 3-amino-6-(1,2,3,6-tetrahydropyridin-4-yl)pyrazine-2-carboxylate hydrochloride] | 6.42 |
| Nc1ncc(C2=CCNCC2)cc1C(=O)O[C@@H](C(=O)Nc1ccc(F)cc1)c1ccccc1 [TDH-070, (R)-2-((4-fluorophenyl)amino)-2-oxo-1-phenylethyl 6-amino-1′,2′,3′,6′-tetrahydro-[3,4′-bipyridine]-5-carboxylate hydrochloride] | 6.96 |
| Nc1ncc(C2=CCN(C(=O)CCCCCNC(=O)C3CN(c4cccc5c4C(=O)N(C4CCC(=O)NC4=O)C5=O)C3)CC2)cc1C(=O)O[C@@H](C(=O)Nc1ccc(F)cc1)c1ccccc1 (stereo partly drawn) [TDH-078, (R)-2-((4-fluorophenyl)amino)-2-oxo-1-phenylethyl 6-amino-1′-(6-(1-(2-(2,6-dioxopiperidin-3-yl)-1,3-dioxoisoindolin-4-yl)azetidine-3-carboxamido)hexanoyl)-1′,2′,3′,6′-tetrahydro-[3,4′-bipyridine]-5-carboxylate] | 7.05 |
| Nc1ncc(C2=CCN(C(=O)CCCCCNC(=O)C3CCN(c4cccc5c4C(=O)N(C4CCC(=O)NC4=O)C5=O)CC3)CC2)cc1C(=O)O[C@@H](C(=O)Nc1ccc(F)cc1)c1ccccc1 (stereo partly drawn) [TDH-080, (R)-2-((4-fluorophenyl)amino)-2-oxo-1-phenylethyl 6-amino-1′-(6-(1-(2-(2,6-dioxopiperidin-3-yl)-1,3-dioxoisoindolin-4-yl)piperidine-4-carboxamido)hexanoyl)-1′,2′,3′,6′-tetrahydro-[3,4′-bipyridine]-5-carboxylate] | 6.92 |
| Nc1ncc(C2=CCN(C(=O)COCCOCCNc3cccc4c3C(=O)N(C3CCC(=O)NC3=O)C4=O)CC2)cc1C(=O)O[C@@H](C(=O)Nc1ccc(F)cc1)c1ccccc1 (stereo partly drawn) [TDH-082, (R)-2-((4-fluorophenyl)amino)-2-oxo-1-phenylethyl 6-amino-1′-(2-(2-(2-((2-(2,6-dioxopiperidin-3-yl)-1,3-dioxoisoindolin-4-yl)amino)ethoxy)ethoxy)acetyl)-1′,2′,3′,6′-tetrahydro-[3,4′-bipyridine]-5-carboxylate] | 7.15 |
| CC(C)(C)OC(=O)N1CC[C@H](n2cc(-c3cnc(N)c(C(=O)OC(C(=O)Nc4ccc(F)cc4)c4ccccc4)n3)cn2)C1 (stereo partly drawn) [TDH-227, 2-((4-fluorophenyl)amino)-2-oxo-1-phenylethyl 3-amino-6-(1-((S)-1-(tert-butoxycarbonyl)pyrrolidin-3-yl)-1H-pyrazol-4-yl)pyrazine-2-carboxylate] | 7.92 |

Results, then the molecule that gave them:

| pKd | Compound |
| --- | --- |
| 7.08 | Nc1ncc(C2=CCN(C(=O)COCCOCCNc3ccc4c(c3)C(=O)N(C3CCC(=O)NC3=O)C4=O)CC2)cc1C(=O)O[C@@H](C(=O)Nc1ccc(F)cc1)c1ccccc1 (stereo partly drawn) [TDH-083, (R)-2-((4-fluorophenyl)amino)-2-oxo-1-phenylethyl 6-amino-1′-(2-(2-(2-((2-(2,6-dioxopiperidin-3-yl)-1,3-dioxoisoindolin-5-yl)amino)ethoxy)ethoxy)acetyl)-1′,2′,3′,6′-tetrahydro-[3,4′-bipyridine]-5-carboxylate] |
| 7.42 | Nc1ncc(C2=CCN(C(=O)COCCOCCNC(=O)C3CN(c4ccc5c(c4)C(=O)N(C4CCC(=O)NC4=O)C5=O)C3)CC2)cc1C(=O)O[C@@H](C(=O)Nc1ccc(F)cc1)c1ccccc1 (stereo partly drawn) [TDH-087, (R)-2-((4-fluorophenyl)amino)-2-oxo-1-phenylethyl 6-amino-1′-(2-(2-(2-(1-(2-(2,6-dioxopiperidin-3-yl)-1,3-dioxoisoindolin-5-yl)azetidine-3-carboxamido)ethoxy)ethoxy)acetyl)-1′,2′,3′,6′-tetrahydro-[3,4′-bipyridine]-5-carboxylate] |
| 7.25 | Nc1ncc(C2=CCN(C(=O)COCCOCCNC(=O)C3CCN(c4ccc5c(c4)C(=O)N(C4CCC(=O)NC4=O)C5=O)CC3)CC2)cc1C(=O)O[C@@H](C(=O)Nc1ccc(F)cc1)c1ccccc1 (stereo partly drawn) [TDH-089, (R)-2-((4-fluorophenyl)amino)-2-oxo-1-phenylethyl 6-amino-1′-(2-(2-(2-(1-(2-(2,6-dioxopiperidin-3-yl)-1,3-dioxoisoindolin-5-yl)piperidine-4-carboxamido)ethoxy)ethoxy)acetyl)-1′,2′,3′,6′-tetrahydro-[3,4′-bipyridine]-5-carboxylate] |
| 7.59 | Nc1ncc(-c2cnn(C3CCN(CCCCCCCCCCNc4cccc5c4C(=O)N(C4CCC(=O)NC4=O)C5=O)CC3)c2)nc1C(=O)O[C@@H](C(=O)Nc1ccc(F)cc1)c1ccccc1 (stereo partly drawn) [TDH-095, (R)-2-((4-fluorophenyl)amino)-2-oxo-1-phenylethyl 3-amino-6-(1-(1-(10-((2-(2,6-dioxopiperidin-3-yl)-1,3-dioxoisoindolin-4-yl)amino)decyl)piperidin-4-yl)-1H-pyrazol-4-yl)pyrazine-2-carboxylate] |
| 9.14 | CC(=O)N1CCC(n2cc(-c3cnc(N)c(C(=O)O[C@@H](C(=O)Nc4ccc(F)cc4)c4ccccc4)n3)cn2)CC1 [TDH-097, (R)-2-((4-fluorophenyl)amino)-2-oxo-1-phenylethyl 6-(1-(1-acetylpiperidin-4-yl)-1H-pyrazol-4-yl)-3-aminopyrazine-2-carboxylate] |
| 8.10 | Nc1ncc(-c2cnn(C3CCN(CCCCCCNc4cccc5c4C(=O)N(C4CCC(=O)NC4=O)C5=O)CC3)c2)nc1C(=O)O[C@@H](C(=O)Nc1ccc(F)cc1)c1ccccc1 (stereo partly drawn) [TDH-119, (R)-2-((4-fluorophenyl)amino)-2-oxo-1-phenylethyl 3-amino-6-(1-(1-(6-((2-(2,6-dioxopiperidin-3-yl)-1,3-dioxoisoindolin-4-yl)amino)hexyl)piperidin-4-yl)-1H-pyrazol-4-yl)pyrazine-2-carboxylate] |
| 8.70 | CCN1CCN(c2ccc(-c3cnc(N)c(C(=O)O[C@@H](C(=O)Nc4ccc(F)cc4)c4ccccc4)n3)cn2)CC1 [TDH-183, (R)-2-((4-fluorophenyl)amino)-2-oxo-1-phenylethyl 3-amino-6-(6-(4-ethylpiperazin-1-yl)pyridin-3-yl)pyrazine-2-carboxylate] |

Tested on: FADD−/− Jurkat cells
Experiment: Necroptosis inhibition assay, TNF-α-induced necroptosis (CellTiter-Glo 2.0)
Type: cell-based, human
Conditions: compound 1 μM; TNF-α 15 ng/mL
Procedure: Necroptosis Inhibition Assay
Necroptosis inhibition was evaluated by the following method.
80 μL of FADD gene-defective human T lymphocyte cells (FADD−/− Jurkat cells) were equally distributed into each well at 5.0×10^5 cells/mL in a white 96-well plate with a transparent bottom. 20 μL of the medium containing test compound was treated in each well so that the final concentration of the compound was 0.1, 1, and 10 μM, and reacted at room temperature for 30 minutes. After the 30-minute reaction was over, TNF (tumor necrosis factor)-α was treated in the corresponding well so that the final concentration of TNF-α was 15 ng/mL in order to induce necroptosis. It was cultured in a 5% CO2, 37° C. incubator for 20 to 24 hours.
After incubation, the 96-well plate was left at room temperature for 30 minutes. After 30 minutes, Promega's CellTiter-Glo 2.0 reagent was diluted 1:3 with PBS and 100 μL of the diluted solution was added to each well to confirm cell viability by measuring the amount of ATP. After the treatment, the plate was shielded from light and incubated at room temperature for 2 minutes with orbital shaking, and then left at room temperature for 10 minutes without shaking. After measuring the luminescence at 0.5 seconds per well using a plate scanner, the cytotoxicity and necroptosis inhibition rate for the compound were calculated using the measured values.

| Compound | Necroptosis inhibition assay (Rescue %) 1 μM |
| --- | --- |
| Nc1nccnc1C(=O)N[C@@H](C(=O)Nc1ccc(F)cc1)c1ccccc1 [TDH-106, (R)-3-amino-N-(2-((4-fluorophenyl)amino)-2-oxo-1-phenylethyl)pyrazine-2-carboxamide] | 13.76% |

Same assay, conditions: compound 10 μM; TNF-α 15 ng/mL

| Compound | Necroptosis inhibition assay (Rescue %) 10 μM |
| --- | --- |
| Nc1nccnc1C(=O)N[C@@H](C(=O)Nc1ccc(F)cc1)c1ccccc1 [TDH-106, (R)-3-amino-N-(2-((4-fluorophenyl)amino)-2-oxo-1-phenylethyl)pyrazine-2-carboxamide] | 34.33% |

— patent US20240252488A1 (KOREA RESEARCH INSTITUTE OF CHEMICAL TECHNOLOGY, priority 2020, published 2024)
